Values quoted from earlier work, collected in US6630467B2, “Pyridone-fused azabicyclic- or cytisine derivatives, their preparation and their use in addiction therapy” (Pfizer Inc., priority 1996, dated 2003).

Conditions: in vivo

Compound: O=c1cccc2n1CC1CNCC2C1 (centres unmarked) [cytisine, 1,2,3,4,5,6-hexahydro-1,5-methano-pyrido[1,2-a][1,5]diazocin-8-one]
- penetration of the brain barrier: inability to penetrate the brain barrier
- potency: not high
